The conditions of series [1]: in vivo; cited from earlier work.
Series [2] in a line: Solubility of fenofibrate in E463808-additive mixtures. The series is classed as physicochemical. Conditions: about 10% v/v additive; 25° C. The method, then:
Equilibrated samples were filtered using 0.2 micrometer PVDF syringe filters and diluted for assay. […] (Tween 85 is also known as polyoxyethylenesorbitan trioleate, Tween 80 is also known as polyoxyethylenesorbitan monooleate, Span 80 is also known as sorbitan monooleate, Span 85 is also known as sorbitan trioleate, and Cremophor EL is also known as polyoxyl castor oil.) Span 80, Span 85, and Tween 85 samples were analyzed using normal-phase HPLC. Cremophor EL, Tween 80, and replicates of Tween 85 samples were analyzed using UV measurements at 285 nm.

Series [3] can be described thus: Stability and compatibility of fenofibrate and E463808 (gradient HPLC). Conditions: 80 or 200 mg/mL in E463808, sealed vial or gelcap, 4 deg C. to 60 deg C., up to 8 weeks. Type of series: physicochemical.
Series [4] can be described thus: Equilibrium fenofibrate solubility in ethyl esters versus triglycerides. Conditions: fenofibrate solubility at 25 degrees C. in the vehicle given as label. Type of series: physicochemical.

Converted amounts (≈) assume the structure as drawn.

The term Solubility denotes the dissolved amount per volume that the medium holds. A high value points to a readily soluble substance.

As to `CC(C)(Oc1ccc(C(=O)c2ccc(Cl)cc2)cc1)C(=O)O` [fenofibric acid], the elimination half-life entry in series [1] is recorded as “approximately twenty”.

For “polyoxyethylenesorbitan monooleate [Tween 80®]”, in series [2], the “effect of additive on fenofibrate solubility in E463808” value (“effect of additive” below) is reported as “Slight enhancement in fenofibrate solubility”.

Consider “polyoxyethylenesorbitan trioleate [Tween 85®]”, for which, in series [2], the “effect of additive” value was “Slight enhancement in fenofibrate solubility”.

As to polyoxyl castor oil [Cremophor® EL], the “effect of additive” value in series [2] is recorded as “Slight enhancement in fenofibrate solubility”.

Consider `CC(C)OC(=O)C(C)(C)Oc1ccc(C(=O)c2ccc(Cl)cc2)cc1` [Fenofibrate, 2-[4-(4-chlorobenzoyl)phenoxy]-2-methyl-propanoic acid 1-methylethyl ester], for which the degradation of fenofibrate entry in series [3] was “no degradation was observed”.

With `CCCCC/C=C\C/C=C\CCCCCCCC(=O)OCC(COC(=O)CCCCCCC/C=C\C/C=C\CCCCC)OC(=O)CCCCCCC/C=C\C/C=C\CCCCC` [Trilinolein], the “Solubility” value in series [4] is reported as 61.2 mg/mL (≈ 69.6 mM).

The values above are taken from patent US20090149533A1 (TransForm Pharmaceuticals, Inc., priority 2004, published 2009).
